Test results taken from ChEMBL document CHEMBL1140614, “In silico and in vitro filters for the fast estimation of skin permeation and distribution of new chemical entities” (J Med Chem, 2007).

Tests used:
[1] = PAMPA, 7 h
[2] = physchem; conditions: octanol/water
[3] = test system: Zone of skin; conditions: human
[4] = octanol/water

| Structure (SMILES) | logP [2] | log Kp [3] | also measured |
| --- | --- | --- | --- |
| O=C(O)c1ccccc1O [SALYCILIC ACID] | – | – | log Pe [1]: -4.16 |
| O=C(O)CCCCc1ccccc1 [5-PHENYLVALERIC ACID] | 2.85 | – | – |
| Oc1ccc(Cl)cc1 [PARACHLOROPHENOL] | – | -5 | – |
| c1ccncc1 [PYRIDINE] | – | – | log Pe [1]: -4.35 |
| Nc1ccc(S(=O)(=O)Nc2ncccn2)cc1 [SULFADIAZINE] | -0.12 | – | log Pe [1]: -6.2 |
| COC(=O)c1cccnc1 [METHYL NICOTINATE] | 0.87 | -6.04 | – |
| C/C=C(/C(=C/C)c1ccc(O)cc1)c1ccc(O)cc1 [DIENESTROL] | 4.5 | – | – |
| C[C@]12CCC(=O)C=C1CC[C@@H]1[C@@H]2CC[C@@]2(C)[C@H]1CC[C@@]21CCC(=O)O1 [SPRIOLACTONE] | 2.26 | – | – |
| CN1CCC[C@H]1c1cccnc1 [NICOTINE] | – | -5.26 | log Pe [1]: -4.58 |
| CC(C(=O)O)c1ccc(-c2ccccc2)c(F)c1 (centres undefined) [FLURBIPROFEN] | 3.99 | – | – |
| Cn1c(=O)c2c(ncn2C)n(C)c1=O [CAFFEINE] | – | -7.56 | log Pe [1]: -5.63 |
| NC(=O)NS(=O)(=O)c1ccc(N)cc1 [SULFACARBAMIDE] | -1.1 | – | – |
| O=[N+]([O-])c1ccc(O)cc1 [P-NITROPHENOL] | – | -5.81 | – |
| Cc1cc(=O)n(-c2ccccc2)n1C [ANTIPYRINE] | – | -7.74 | – |
| Cc1ccccc1O [ORTHOCRESOL] | 1.94 | -5.36 | – |
| Nc1ccc(S(=O)(=O)NC(=O)c2ccccc2)cc1 [SULFABENZAMIDE] | 1.46 | – | – |
| CC(C)NCC(O)COc1cccc2ccccc12 (centres undefined) [PROPRANOLOL] | – | – | log Pe [1]: -4.25 |

| Structure (SMILES) | logP [2] | log Kp [3] | also measured |
| --- | --- | --- | --- |
| Oc1ccccc1 [PHENOL] | – | -5.64 | log Pe [1]: -4.14 |
| Nc1cc([N+](=O)[O-])ccc1O [2-AMINO-4-NITROPHENOL] | – | -6.62 | – |
| O=C(OCc1ccccc1)c1cccnc1 [BENZYL NICOTINATE] | – | -5.35 | – |
| Cc1ccc(C(C)C)c(O)c1 [THYMOL] | – | -4.83 | – |
| O=C(O)c1ccccc1 [BENZOIC ACID] | – | -5.08 | – |
| CC(=O)[C@H]1CC[C@H]2[C@@H]3CCC4=CC(=O)CC[C@]4(C)[C@H]3CC[C@]12C [PROGESTERONE] | – | -5.08 | log Pe [1]: -4.56 |
| COc1ccc2c(c1)c(CC(=O)O)c(C)n2C(=O)c1ccc(Cl)cc1 [INDOMETHACIN] | – | -5.39 | logP [4]: 4.27 |
| CN[C@@H](C)[C@H](O)c1ccccc1 [EPHEDRINE] | – | -5.75 | – |
| CC(C(=O)O)c1cccc(C(=O)c2ccccc2)c1 (centres undefined) [KETOPROFEN] | – | -4.7 | – |
| c1ccc2cnccc2c1 [ISOQUINOLINE] | – | -5.33 | – |
| CCC1(c2ccccc2)C(=O)NC(=O)NC1=O [PHENOBARBITAL] | – | -6.9 | – |
| Oc1ccc2ccccc2c1 [BETANAPHTHOL] | – | -5.11 | log Pe [1]: -4.19 |
| O=C(O)Cc1ccccc1Nc1c(Cl)cccc1Cl [DICLOFENAC] | – | -5.3 | – |
| CCNc1nc(Cl)nc(NC(C)C)n1 [ATRAZINE] | – | -5.56 | – |
| CN1C(C(=O)Nc2ccccn2)=C(O)c2ccccc2S1(=O)=O [PIROXICAM] | – | -6.02 | – |
| CCc1ccc(O)cc1 | 2.47 | -5.01 | – |
| C[C@H]1C[C@H]2[C@@H]3CCC4=CC(=O)C=C[C@]4(C)[C@@]3(F)[C@@H](O)C[C@]2(C)[C@@]1(O)C(=O)CO [BETAMETHASONE] | 2.01 | – | – |
